The values below come from ChEMBL document CHEMBL5291721, “A preclinical secondary pharmacology resource illuminates target-adverse drug reaction associations of marketed drugs” (Nat Commun, 2023).

Bounds are passed on as bounds.

Test [1] addresses Gamma-aminobutyric acid type B receptor subunit 1 (Homo sapiens, UniProt Q9UBS5).
Test [2] addresses Voltage-dependent L-type calcium channel subunit alpha-1C (Homo sapiens, UniProt Q13936). It is filed as functional, cell-based.
Test [3] concerns the target T1, Androgen receptor (Homo sapiens, UniProt P10275).
T1 sequence (P10275 whole entry): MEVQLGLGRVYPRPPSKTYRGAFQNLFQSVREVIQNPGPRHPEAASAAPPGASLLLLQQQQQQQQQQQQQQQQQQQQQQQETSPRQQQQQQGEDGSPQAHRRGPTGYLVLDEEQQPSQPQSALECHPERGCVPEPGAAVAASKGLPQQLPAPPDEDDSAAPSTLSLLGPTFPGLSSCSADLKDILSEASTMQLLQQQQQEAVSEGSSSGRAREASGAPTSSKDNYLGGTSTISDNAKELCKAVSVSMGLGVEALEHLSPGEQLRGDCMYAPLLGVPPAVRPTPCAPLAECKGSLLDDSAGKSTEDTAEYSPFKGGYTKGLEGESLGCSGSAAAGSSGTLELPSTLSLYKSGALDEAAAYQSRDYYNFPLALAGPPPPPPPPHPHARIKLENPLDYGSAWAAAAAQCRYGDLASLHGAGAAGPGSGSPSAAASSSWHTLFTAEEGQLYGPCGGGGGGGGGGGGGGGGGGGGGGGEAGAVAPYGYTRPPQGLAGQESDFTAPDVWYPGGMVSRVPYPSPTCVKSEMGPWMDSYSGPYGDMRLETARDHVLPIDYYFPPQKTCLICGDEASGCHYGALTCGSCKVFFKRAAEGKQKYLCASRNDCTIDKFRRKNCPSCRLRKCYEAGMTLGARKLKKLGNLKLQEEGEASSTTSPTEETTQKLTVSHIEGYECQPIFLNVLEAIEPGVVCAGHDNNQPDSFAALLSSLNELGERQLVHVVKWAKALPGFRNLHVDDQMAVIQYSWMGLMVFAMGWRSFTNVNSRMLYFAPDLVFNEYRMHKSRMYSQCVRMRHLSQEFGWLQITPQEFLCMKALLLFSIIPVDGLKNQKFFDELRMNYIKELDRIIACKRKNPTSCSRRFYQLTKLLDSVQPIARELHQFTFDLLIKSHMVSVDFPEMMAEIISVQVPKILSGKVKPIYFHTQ

Test [4] deals with T2, Androgen receptor (Rattus norvegicus, UniProt P15207).
T2 sequence (P15207 whole entry): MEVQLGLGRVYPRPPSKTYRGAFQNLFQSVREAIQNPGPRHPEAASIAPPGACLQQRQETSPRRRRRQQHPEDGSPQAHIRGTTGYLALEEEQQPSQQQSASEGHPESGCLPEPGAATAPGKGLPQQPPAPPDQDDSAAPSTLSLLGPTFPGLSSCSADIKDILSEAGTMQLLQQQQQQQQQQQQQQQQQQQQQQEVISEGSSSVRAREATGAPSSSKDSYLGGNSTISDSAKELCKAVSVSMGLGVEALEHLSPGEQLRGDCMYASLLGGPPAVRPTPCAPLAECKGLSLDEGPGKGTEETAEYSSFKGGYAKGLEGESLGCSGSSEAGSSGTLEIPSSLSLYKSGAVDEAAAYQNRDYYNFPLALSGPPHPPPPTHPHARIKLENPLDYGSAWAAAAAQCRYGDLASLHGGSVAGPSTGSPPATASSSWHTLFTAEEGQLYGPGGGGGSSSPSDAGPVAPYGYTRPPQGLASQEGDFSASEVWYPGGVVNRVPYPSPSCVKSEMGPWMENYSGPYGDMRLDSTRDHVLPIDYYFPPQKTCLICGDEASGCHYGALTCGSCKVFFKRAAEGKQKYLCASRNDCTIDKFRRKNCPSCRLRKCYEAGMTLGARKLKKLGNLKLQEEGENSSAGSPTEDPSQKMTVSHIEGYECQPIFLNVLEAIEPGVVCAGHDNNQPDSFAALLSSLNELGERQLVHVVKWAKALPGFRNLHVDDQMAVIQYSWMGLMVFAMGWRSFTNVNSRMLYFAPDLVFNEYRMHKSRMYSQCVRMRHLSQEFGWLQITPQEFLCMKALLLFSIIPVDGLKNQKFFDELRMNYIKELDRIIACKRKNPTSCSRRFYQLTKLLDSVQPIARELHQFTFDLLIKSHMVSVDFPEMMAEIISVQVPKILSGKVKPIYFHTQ
It is filed as functional.

Test [5] addresses T3, Estrogen receptor (Homo sapiens, UniProt P03372).
T3 sequence (P03372 whole entry): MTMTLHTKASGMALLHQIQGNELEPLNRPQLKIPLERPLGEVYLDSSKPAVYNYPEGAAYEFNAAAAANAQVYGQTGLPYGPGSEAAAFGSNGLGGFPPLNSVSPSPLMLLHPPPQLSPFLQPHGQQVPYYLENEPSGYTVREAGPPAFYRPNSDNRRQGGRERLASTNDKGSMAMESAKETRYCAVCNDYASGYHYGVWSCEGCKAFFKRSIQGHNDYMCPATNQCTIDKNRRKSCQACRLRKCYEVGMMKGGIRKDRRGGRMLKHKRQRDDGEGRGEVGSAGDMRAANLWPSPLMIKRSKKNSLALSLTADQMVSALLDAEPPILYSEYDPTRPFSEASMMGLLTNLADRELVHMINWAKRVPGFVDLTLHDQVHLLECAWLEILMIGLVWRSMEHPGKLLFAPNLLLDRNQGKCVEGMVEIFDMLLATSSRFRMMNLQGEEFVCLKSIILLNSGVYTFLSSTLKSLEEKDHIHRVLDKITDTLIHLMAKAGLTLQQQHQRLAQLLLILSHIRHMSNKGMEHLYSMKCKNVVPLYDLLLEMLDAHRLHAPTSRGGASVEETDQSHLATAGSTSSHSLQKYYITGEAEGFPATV
The test is classed as functional.

Test [6] concerns the target T3, Estrogen receptor. The test is classed as functional. The source holds these as a separate data set.
Test [7] addresses T2, Androgen receptor.
The target of test [8] is Vascular endothelial growth factor receptor 2 (Homo sapiens, UniProt P35968). The test is classed as functional.
Sequence of Vascular endothelial growth factor receptor 2 (P35968 whole entry): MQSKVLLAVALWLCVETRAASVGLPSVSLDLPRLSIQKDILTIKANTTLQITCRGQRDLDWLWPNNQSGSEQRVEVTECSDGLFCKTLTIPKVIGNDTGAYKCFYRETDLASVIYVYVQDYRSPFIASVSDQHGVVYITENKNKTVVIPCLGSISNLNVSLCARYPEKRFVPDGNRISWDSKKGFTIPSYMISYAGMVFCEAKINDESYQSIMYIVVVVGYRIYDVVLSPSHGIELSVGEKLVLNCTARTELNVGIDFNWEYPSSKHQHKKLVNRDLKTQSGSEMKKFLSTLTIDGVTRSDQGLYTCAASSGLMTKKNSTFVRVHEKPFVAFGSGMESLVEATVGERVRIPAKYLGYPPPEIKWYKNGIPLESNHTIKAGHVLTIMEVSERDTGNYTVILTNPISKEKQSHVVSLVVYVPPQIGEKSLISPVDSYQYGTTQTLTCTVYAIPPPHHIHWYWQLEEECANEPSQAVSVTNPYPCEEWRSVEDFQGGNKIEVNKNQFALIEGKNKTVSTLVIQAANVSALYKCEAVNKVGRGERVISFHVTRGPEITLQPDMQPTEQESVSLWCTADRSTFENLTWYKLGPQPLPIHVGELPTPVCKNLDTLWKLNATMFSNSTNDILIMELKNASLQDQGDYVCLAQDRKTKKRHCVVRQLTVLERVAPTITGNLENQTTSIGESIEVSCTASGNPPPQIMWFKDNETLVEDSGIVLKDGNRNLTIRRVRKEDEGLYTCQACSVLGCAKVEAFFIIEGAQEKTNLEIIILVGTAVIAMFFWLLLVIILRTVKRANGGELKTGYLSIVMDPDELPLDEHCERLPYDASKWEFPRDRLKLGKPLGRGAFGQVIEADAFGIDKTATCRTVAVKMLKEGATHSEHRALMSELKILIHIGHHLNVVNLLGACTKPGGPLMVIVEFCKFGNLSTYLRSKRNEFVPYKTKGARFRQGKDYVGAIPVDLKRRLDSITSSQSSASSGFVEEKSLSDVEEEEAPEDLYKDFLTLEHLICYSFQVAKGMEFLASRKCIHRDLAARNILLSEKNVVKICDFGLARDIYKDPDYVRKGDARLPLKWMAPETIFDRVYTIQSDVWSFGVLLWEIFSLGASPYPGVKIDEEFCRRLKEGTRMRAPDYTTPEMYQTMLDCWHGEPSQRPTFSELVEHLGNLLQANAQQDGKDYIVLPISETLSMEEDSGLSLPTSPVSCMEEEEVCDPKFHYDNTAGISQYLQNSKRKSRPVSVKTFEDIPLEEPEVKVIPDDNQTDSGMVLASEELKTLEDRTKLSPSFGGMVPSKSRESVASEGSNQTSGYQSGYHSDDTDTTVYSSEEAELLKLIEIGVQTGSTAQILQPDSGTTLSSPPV
Another test deals with T4, Thromboxane A2 receptor (Homo sapiens, UniProt P21731).
T4 sequence (P21731 whole entry): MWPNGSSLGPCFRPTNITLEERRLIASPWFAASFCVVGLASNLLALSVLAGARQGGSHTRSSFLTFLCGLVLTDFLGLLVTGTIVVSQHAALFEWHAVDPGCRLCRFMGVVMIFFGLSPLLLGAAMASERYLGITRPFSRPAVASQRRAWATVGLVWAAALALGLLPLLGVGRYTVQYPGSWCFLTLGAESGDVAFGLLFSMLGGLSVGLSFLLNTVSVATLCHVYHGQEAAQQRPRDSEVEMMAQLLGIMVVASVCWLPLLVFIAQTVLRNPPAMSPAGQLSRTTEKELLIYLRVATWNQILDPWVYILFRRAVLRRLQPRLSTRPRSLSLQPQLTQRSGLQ
The test is classed as functional, cell-based.
Further: assay procedure not described here.

Sequence of Voltage-dependent L-type calcium channel subunit alpha-1C (Q13936 whole entry): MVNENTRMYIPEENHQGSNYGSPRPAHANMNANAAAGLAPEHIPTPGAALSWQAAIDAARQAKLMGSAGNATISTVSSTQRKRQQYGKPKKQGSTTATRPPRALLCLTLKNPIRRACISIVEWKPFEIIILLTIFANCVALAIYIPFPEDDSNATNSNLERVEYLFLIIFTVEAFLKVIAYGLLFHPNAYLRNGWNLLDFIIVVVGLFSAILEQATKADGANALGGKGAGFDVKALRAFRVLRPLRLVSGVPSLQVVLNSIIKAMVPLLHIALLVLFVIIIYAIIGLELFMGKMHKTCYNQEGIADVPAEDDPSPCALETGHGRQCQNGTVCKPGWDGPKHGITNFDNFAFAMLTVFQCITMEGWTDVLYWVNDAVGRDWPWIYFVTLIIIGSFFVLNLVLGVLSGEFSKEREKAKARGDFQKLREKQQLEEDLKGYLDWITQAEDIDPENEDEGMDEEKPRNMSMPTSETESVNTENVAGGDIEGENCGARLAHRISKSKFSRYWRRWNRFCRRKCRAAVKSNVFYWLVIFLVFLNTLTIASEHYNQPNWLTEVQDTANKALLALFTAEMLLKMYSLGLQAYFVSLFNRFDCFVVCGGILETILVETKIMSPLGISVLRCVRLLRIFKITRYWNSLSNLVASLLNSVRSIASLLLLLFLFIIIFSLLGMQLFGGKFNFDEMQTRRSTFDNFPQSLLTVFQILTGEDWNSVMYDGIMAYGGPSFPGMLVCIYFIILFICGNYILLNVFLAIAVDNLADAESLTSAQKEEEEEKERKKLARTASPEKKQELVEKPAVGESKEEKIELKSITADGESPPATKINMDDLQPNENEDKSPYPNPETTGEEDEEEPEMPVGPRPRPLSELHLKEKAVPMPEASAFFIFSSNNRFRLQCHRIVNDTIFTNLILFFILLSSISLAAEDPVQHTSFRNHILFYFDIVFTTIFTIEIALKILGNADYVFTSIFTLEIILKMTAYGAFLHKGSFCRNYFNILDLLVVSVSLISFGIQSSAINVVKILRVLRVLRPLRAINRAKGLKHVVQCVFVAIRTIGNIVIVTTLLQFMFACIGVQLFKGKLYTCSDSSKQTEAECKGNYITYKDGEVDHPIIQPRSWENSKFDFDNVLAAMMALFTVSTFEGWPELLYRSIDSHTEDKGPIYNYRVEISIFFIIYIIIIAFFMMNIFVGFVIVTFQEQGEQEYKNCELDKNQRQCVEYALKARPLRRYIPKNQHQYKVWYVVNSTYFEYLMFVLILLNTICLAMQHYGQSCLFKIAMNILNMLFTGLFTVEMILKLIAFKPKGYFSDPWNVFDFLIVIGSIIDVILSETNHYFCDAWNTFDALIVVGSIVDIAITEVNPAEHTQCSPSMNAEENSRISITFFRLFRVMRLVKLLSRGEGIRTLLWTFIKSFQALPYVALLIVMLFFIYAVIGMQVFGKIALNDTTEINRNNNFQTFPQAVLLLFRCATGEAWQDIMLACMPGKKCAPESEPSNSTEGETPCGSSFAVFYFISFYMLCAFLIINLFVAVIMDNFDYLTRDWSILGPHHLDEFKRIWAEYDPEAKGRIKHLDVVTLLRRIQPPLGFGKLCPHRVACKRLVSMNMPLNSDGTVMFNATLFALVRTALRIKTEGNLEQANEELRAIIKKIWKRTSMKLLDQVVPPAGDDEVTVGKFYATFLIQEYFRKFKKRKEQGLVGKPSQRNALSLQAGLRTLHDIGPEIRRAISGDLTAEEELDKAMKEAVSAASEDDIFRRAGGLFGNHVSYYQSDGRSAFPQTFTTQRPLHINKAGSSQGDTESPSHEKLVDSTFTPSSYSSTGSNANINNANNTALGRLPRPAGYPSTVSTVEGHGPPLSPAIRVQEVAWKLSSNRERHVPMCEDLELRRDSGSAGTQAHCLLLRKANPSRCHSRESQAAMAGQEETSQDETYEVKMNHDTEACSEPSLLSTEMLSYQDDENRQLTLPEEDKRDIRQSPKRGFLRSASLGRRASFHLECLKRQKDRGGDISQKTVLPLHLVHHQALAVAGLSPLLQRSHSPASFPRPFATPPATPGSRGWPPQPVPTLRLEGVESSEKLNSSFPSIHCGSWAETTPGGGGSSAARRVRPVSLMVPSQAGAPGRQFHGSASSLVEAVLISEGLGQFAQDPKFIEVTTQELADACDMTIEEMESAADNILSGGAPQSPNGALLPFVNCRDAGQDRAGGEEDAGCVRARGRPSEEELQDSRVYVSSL
Sequence of Gamma-aminobutyric acid type B receptor subunit 1 (Q9UBS5 whole entry): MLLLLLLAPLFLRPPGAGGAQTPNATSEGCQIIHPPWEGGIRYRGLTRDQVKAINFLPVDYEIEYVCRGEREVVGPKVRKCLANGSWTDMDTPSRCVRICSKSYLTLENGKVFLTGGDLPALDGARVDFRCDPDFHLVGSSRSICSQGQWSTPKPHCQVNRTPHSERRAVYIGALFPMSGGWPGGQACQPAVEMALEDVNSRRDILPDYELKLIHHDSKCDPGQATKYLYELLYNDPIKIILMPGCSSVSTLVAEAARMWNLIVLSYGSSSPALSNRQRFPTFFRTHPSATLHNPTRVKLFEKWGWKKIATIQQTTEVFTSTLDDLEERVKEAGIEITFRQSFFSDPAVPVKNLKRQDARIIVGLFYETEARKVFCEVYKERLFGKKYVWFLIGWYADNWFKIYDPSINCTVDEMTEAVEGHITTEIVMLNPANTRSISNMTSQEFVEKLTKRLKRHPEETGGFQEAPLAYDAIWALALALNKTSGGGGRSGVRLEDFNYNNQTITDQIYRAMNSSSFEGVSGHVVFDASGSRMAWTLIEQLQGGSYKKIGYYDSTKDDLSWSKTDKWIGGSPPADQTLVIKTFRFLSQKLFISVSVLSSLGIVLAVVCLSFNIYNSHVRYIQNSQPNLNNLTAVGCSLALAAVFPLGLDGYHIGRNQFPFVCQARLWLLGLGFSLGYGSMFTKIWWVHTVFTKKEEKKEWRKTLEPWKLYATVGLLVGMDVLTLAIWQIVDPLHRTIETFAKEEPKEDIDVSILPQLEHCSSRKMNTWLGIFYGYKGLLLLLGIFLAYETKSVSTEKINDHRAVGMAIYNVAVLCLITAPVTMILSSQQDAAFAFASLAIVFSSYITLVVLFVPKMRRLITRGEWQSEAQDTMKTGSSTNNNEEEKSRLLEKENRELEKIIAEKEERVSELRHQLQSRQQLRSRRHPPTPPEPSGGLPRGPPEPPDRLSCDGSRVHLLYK

The compound `CCc1nn(CCCN2CCN(c3cccc(Cl)c3)CC2)c(=O)n1CCOc1ccccc1` [NEFAZODONE] yielded an AC50 in [1] of over 10 µM.
On to `Cc1cccc(C)c1OCC(C)N` (configuration not stated) [MEXILETINE], for which the concentration at half-maximal activity (AC50) in test [2] is over 50 µM.
As for `NS(=O)(=O)c1cc2c(cc1Cl)NCNS2(=O)=O` [HYDROCHLOROTHIAZIDE], the AC50 in test [1] is over 10 µM.
On the same count and under the same terms, for `CCOC(=O)[C@H](CCc1ccccc1)N[C@@H](C)C(=O)N1CCC[C@H]1C(=O)O` the value was over 10 µM.
`O=C1c2c(O)c(=O)ccn2N([C@@H]2c3ccccc3SCc3c2ccc(F)c3F)[C@@H]2COCCN12` [BALOXAVIR]: the AC50 on Androgen receptor [3] was over 30 µM; in [2] it was over 50 µM.
As for `CS(=O)(=O)c1ccc([C@@H](O)[C@@H](CO)NC(=O)C(Cl)Cl)cc1` [THIAMPHENICOL], the AC50 in test [2] is over 50 µM.
As to `CCC(=O)c1c(O)cc(O)cc1O` [FLOPROPIONE], the AC50 at Androgen receptor [3] was over 30 µM.
With `CCCS(=O)(=O)Nc1ccc(F)c(C(=O)c2c[nH]c3ncc(-c4ccc(Cl)cc4)cc23)c1F` [VEMURAFENIB], the AC50 (on Androgen receptor [4]; in [2]) was over 30 µM in each case.
As for `CCc1ccc(CCOc2ccc(CC3SC(=O)NC3=O)cc2)nc1` (configuration not stated) [PIOGLITAZONE], the AC50 in test [1] is over 10 µM.
As to `CN1CCCC(n2nc(Cc3ccc(Cl)cc3)c3ccccc3c2=O)CC1` (configuration not stated) [AZELASTINE], the AC50 on Estrogen receptor [5] and at Estrogen receptor [6] was over 30 µM throughout.
Consider `CC(C(=O)O)c1ccc(N2CC=CC2)c(Cl)c1` (configuration not stated) [PIRPROFEN], for which the AC50 on Androgen receptor [7] and at Androgen receptor [3] was over 30 µM throughout.
Turning to `CC(C)C(=O)Nc1ccc([N+](=O)[O-])c(C(F)(F)F)c1` [FLUTAMIDE], the values for the AC50 (in [8]; on Thromboxane A2 receptor) were over 30 µM and 6 µM, respectively.
For `CC(C)OC(=O)[C@H](C)N[P@](=O)(OC[C@H]1O[C@@H](n2ccc(=O)[nH]c2=O)[C@](C)(F)[C@@H]1O)Oc1ccccc1` [SOFOSBUVIR], the AC50 at Androgen receptor [3] was over 30 µM; in [2] it was over 50 µM.
For `OCc1cc([C@@H](O)CNCCCCCCOCCOCc2c(Cl)cccc2Cl)ccc1O` [VILANTEROL], the AC50 at Androgen receptor [4], on Estrogen receptor [5] and at Estrogen receptor [6] was over 30 µM throughout.
Turning to `COc1cc(Nc2c(C#N)cnc3cc(OCCCN4CCN(C)CC4)c(OC)cc23)c(Cl)cc1Cl` [BOSUTINIB], in test [1], the AC50 is over 10 µM.
Turning to `COc1cc2c(cc1OC)C(=O)C(CC1CCN(Cc3ccccc3)CC1)C2` (configuration not stated) [DONEPEZIL], the AC50 at Androgen receptor [7] was over 30 µM; at Androgen receptor [3] it was over 30 µM; in test [1], over 10 µM.
As to `CC(=O)c1ccc2c(c1)N(CCCN1CCN(CCO)CC1)c1ccccc1S2` [ACETOPHENAZINE], the AC50 was 13 µM on Estrogen receptor [5] and over 30 µM at Estrogen receptor [6].
With `CCO/N=C(\C(=O)N[C@@H]1C(=O)N2C(C(=O)[O-])=C(Sc3nc(-c4cc[n+](C)cc4)cs3)CS[C@H]12)c1nsc(N)n1` [CEFTAROLINE], the AC50 at Androgen receptor [3] was over 30 µM.
On the same count and under the same terms, for `Cc1ccc(O)c2ncccc12` [TILIQUINOL] the value was over 30 µM.
On to `C[C@@H]1O[C@@H]1P(=O)(O)O` [FOSFOMYCIN], for which the AC50 at Androgen receptor [7] was over 30 µM.
In turn, `CC(C)NCC(O)COc1ccc(COCCOC(C)C)cc1` (configuration not stated) [BISOPROLOL] gave an AC50 at Androgen receptor [7] of over 30 µM.
With `COC(=O)[C@@H]1CC2=CC(=O)CC[C@]2(C)[C@@]23O[C@@H]2C[C@@]2(C)[C@@H](CC[C@@]24CCC(=O)O4)[C@H]13` [EPLERENONE], the AC50 (at Estrogen receptor [5]; at Estrogen receptor [6]; in test [8]) was over 30 µM each time.
In turn, `C#C[C@]1(O)CC[C@H]2[C@@H]3CCc4cc(O)ccc4[C@H]3CC[C@@]21C` [ETHINYL ESTRADIOL] yielded an AC50 in [1] of over 10 µM.
On to `COC(=O)N[C@H](C(=O)N1CCC[C@H]1c1nc(-c2ccc(-c3ccc(-c4c[nH]c([C@@H]5CCCN5C(=O)[C@@H](NC(=O)OC)C(C)C)n4)cc3)cc2)c[nH]1)C(C)C`, for which the AC50 (at Androgen receptor [4]; in test [2]) was over 30 µM in each case.
Compound `C(=N\NC1=NCCN1)/c1c2ccccc2c(/C=N/NC2=NCCN2)c2ccccc12` [BISANTRENE] displayed an AC50 at Androgen receptor [3] of over 30 µM.
Regarding `CC[C@H](C)C(=O)O[C@H]1C[C@H](O)C=C2C=C[C@H](C)[C@H](CC[C@@H](O)C[C@@H](O)CC(=O)O)[C@H]21` [PRAVASTATIN], the AC50 on Estrogen receptor [5] and at Estrogen receptor [6] was over 30 µM throughout.
As for `O=C(CCCCCCC(=O)Nc1ccccc1)NO` [VORINOSTAT], the AC50 in test [1] is over 10 µM.
On to `CCOC(=O)N[C@@H]1CC[C@@H]2[C@@H](C1)C[C@H]1C(=O)O[C@H](C)[C@H]1[C@H]2/C=C/c1ccc(-c2cccc(F)c2)cn1` [VORAPAXAR], for which the AC50 is over 30 µM on Androgen receptor [3] and over 50 µM in [2].
The compound `CC(=O)OC[C@H]1O[C@@H](n2ccc(=O)[nH]c2=O)[C@H](OC(C)=O)[C@@H]1OC(C)=O` [URIDINE TRIACETATE] had an AC50 at Androgen receptor [3] of over 30 µM.
`C[C@H]1C[C@@H]2[C@H]([C@@H](O)C[C@@]3(C)[C@H]2CC[C@]3(O)C(=O)CO)[C@@]2(C)C=CC(=O)C=C12` [METHYLPREDNISOLONE] yielded an AC50 on Androgen receptor [7] of over 30 µM.
`CC(N)Cc1ccccc1` (configuration not stated) [AMPHETAMINE]: the AC50 on Androgen receptor [4], on Androgen receptor [7], on Estrogen receptor [5] and at Estrogen receptor [6] was over 30 µM in each case.
In [1], `C[C@H]1O[C@H](O[C@H]2[C@H](O)[C@@H](O)[C@@H](O[C@H]3[C@H](O)[C@@H](O)C(O)O[C@@H]3CO)O[C@@H]2CO)[C@H](O)[C@@H](O)[C@@H]1N[C@H]1C=C(CO)[C@@H](O)[C@H](O)[C@H]1O` (some centres not stated) [ACARBOSE] showed an AC50 of over 10 µM.
Turning to `COc1ccc2c(c1)C(=O)N(CCc1ccc(S(=O)(=O)NC(=O)NC3CCCCC3)cc1)C(=O)C2(C)C` [GLIQUIDONE], the AC50 on Androgen receptor [4] was over 30 µM.
